The first assay concerns NCI-H2170. Description: relative viability (nuclei count vs DMSO), 5 days (fraction); higher = more cells survive. The conditions noted are these: first compound 6.325 µM. An outline of the steps:
(§1)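 Lung cancer cell lines were seeded in 1536-well plates and dosed by pin tool the next day, with either a single drug or a fixed anchor-drug dose combined with five library-drug doses (not always all listed) spaced in √10 steps. Five days later, one step fixed the cells and stained their nuclei (final 0.05% Triton X-100, 1% formaldehyde, 1 ug/ml Hoechst), and nuclei were counted on 4× images. Relative viability is the nuclei count in treated wells divided by the count in vehicle wells, and each value is the median of duplicate plates.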
The compound `COCC1(CO)C(=O)C2CCN1CC2` (stereo not given) [PRIMA-1MET] + O=C(c1cc(Cc2n[nH]c(=O)c3ccccc23)ccc1F)N1CCN(C(=O)C2CC2)CC1 [Olaparib] (partner 8 µM) displayed a relative viability of 0.684.
The same measure, in the same setting: the result for `COCC1(CO)C(=O)C2CCN1CC2` (stereo not given) [PRIMA-1MET] + C[C@@H](Oc1cc(-c2cnn(C3CCNCC3)c2)cnc1N)c1c(Cl)ccc(F)c1Cl [Crizotinib] (partner 1 µM) reads 1.26.

The assay is the same for the next values; noted with them: first compound 20 µM.
Turning to `COCC1(CO)C(=O)C2CCN1CC2` (stereo not given) [PRIMA-1MET] + CC(=O)Nc1cccc(-n2c(=O)n(C3CC3)c(=O)c3c(Nc4ccc(I)cc4F)n(C)c(=O)c(C)c32)c1 [Trametinib] (partner 0.02 µM), the relative viability was determined as 0.964.
Still for that read-out and setting: the result for `COCC1(CO)C(=O)C2CCN1CC2` (stereo not given) [PRIMA-1MET] + Nc1ncn([C@H]2C[C@H](O)[C@@H](CO)O2)c(=O)n1 [Decitabine] (partner 2 µM) reads 0.457; that for `COCC1(CO)C(=O)C2CCN1CC2` (stereo not given) [PRIMA-1MET] + O=C(c1cc(Cc2n[nH]c(=O)c3ccccc23)ccc1F)N1CCN(C(=O)C2CC2)CC1 [Olaparib] (partner 8 µM), 0.622; that for `COCC1(CO)C(=O)C2CCN1CC2` (stereo not given) [PRIMA-1MET] + C[C@@H](Oc1cc(-c2cnn(C3CCNCC3)c2)cnc1N)c1c(Cl)ccc(F)c1Cl [Crizotinib] (partner 1 µM), 1.21.

Another assay relates to SK-LU-1. The description is as above. The note with it: first compound 0.2 µM. In short, it runs like this: as §1
In turn, `COCC1(CO)C(=O)C2CCN1CC2` (stereo not given) [PRIMA-1MET] + CC(C)C[C@H](NC(=O)[C@H](Cc1ccccc1)NC(=O)c1cnccn1)B(O)O [Bortezomib] (partner 0.002 µM) gave a relative viability of 1.42.
The same measure, in the same setting: the result for `COCC1(CO)C(=O)C2CCN1CC2` (stereo not given) [PRIMA-1MET] + CC(=O)Nc1cccc(-n2c(=O)n(C3CC3)c(=O)c3c(Nc4ccc(I)cc4F)n(C)c(=O)c(C)c32)c1 [Trametinib] (partner 0.02 µM) reads 0.308; that for `COCC1(CO)C(=O)C2CCN1CC2` (stereo not given) [PRIMA-1MET] + Nc1ncn([C@H]2C[C@H](O)[C@@H](CO)O2)c(=O)n1 [Decitabine] (partner 2 µM), 0.523.
Turning to `COCC1(CO)C(=O)C2CCN1CC2` (stereo not given) [PRIMA-1MET] + O=C(c1cc(Cc2n[nH]c(=O)c3ccccc23)ccc1F)N1CCN(C(=O)C2CC2)CC1 [Olaparib] (partner 8 µM), the relative viability came out at 0.504.
On the same count and under the same terms, the result for `COCC1(CO)C(=O)C2CCN1CC2` (stereo not given) [PRIMA-1MET] + C[C@@H](Oc1cc(-c2cnn(C3CCNCC3)c2)cnc1N)c1c(Cl)ccc(F)c1Cl [Crizotinib] (partner 1 µM) reads 0.93.

The same assay, now with this note: first compound 0.6325 µM.
Compound `COCC1(CO)C(=O)C2CCN1CC2` (stereo not given) [PRIMA-1MET] + CC(C)C[C@H](NC(=O)[C@H](Cc1ccccc1)NC(=O)c1cnccn1)B(O)O [Bortezomib] (partner 0.002 µM) had a relative viability of 1.07.
Same read-out and setting: the result for `COCC1(CO)C(=O)C2CCN1CC2` (stereo not given) [PRIMA-1MET] + CC(=O)Nc1cccc(-n2c(=O)n(C3CC3)c(=O)c3c(Nc4ccc(I)cc4F)n(C)c(=O)c(C)c32)c1 [Trametinib] (partner 0.02 µM) reads 0.488; that for `COCC1(CO)C(=O)C2CCN1CC2` (stereo not given) [PRIMA-1MET] + Nc1ncn([C@H]2C[C@H](O)[C@@H](CO)O2)c(=O)n1 [Decitabine] (partner 2 µM), 0.513.
The same measure, in the same setting: the same measure for `COCC1(CO)C(=O)C2CCN1CC2` (stereo not given) [PRIMA-1MET] + O=C(c1cc(Cc2n[nH]c(=O)c3ccccc23)ccc1F)N1CCN(C(=O)C2CC2)CC1 [Olaparib] (partner 8 µM): 0.494; for `COCC1(CO)C(=O)C2CCN1CC2` (stereo not given) [PRIMA-1MET] + C[C@@H](Oc1cc(-c2cnn(C3CCNCC3)c2)cnc1N)c1c(Cl)ccc(F)c1Cl [Crizotinib] (partner 1 µM): 0.729.

The same assay, now with this note: first compound 2 µM.
`COCC1(CO)C(=O)C2CCN1CC2` (stereo not given) [PRIMA-1MET] + CC(=O)Nc1cccc(-n2c(=O)n(C3CC3)c(=O)c3c(Nc4ccc(I)cc4F)n(C)c(=O)c(C)c32)c1 [Trametinib] (partner 0.02 µM) gave a relative viability of 0.35.
Same read-out and setting: the result for `COCC1(CO)C(=O)C2CCN1CC2` (stereo not given) [PRIMA-1MET] + Nc1ncn([C@H]2C[C@H](O)[C@@H](CO)O2)c(=O)n1 [Decitabine] (partner 2 µM) reads 0.503; that for `COCC1(CO)C(=O)C2CCN1CC2` (stereo not given) [PRIMA-1MET] + O=C(c1cc(Cc2n[nH]c(=O)c3ccccc23)ccc1F)N1CCN(C(=O)C2CC2)CC1 [Olaparib] (partner 8 µM), 0.365.
On the same count and under the same terms, the same measure for `COCC1(CO)C(=O)C2CCN1CC2` (stereo not given) [PRIMA-1MET] + C[C@@H](Oc1cc(-c2cnn(C3CCNCC3)c2)cnc1N)c1c(Cl)ccc(F)c1Cl [Crizotinib] (partner 1 µM): 0.837.

The same assay, now with this note: first compound 6.325 µM.
For `COCC1(CO)C(=O)C2CCN1CC2` (stereo not given) [PRIMA-1MET] + CC(C)C[C@H](NC(=O)[C@H](Cc1ccccc1)NC(=O)c1cnccn1)B(O)O [Bortezomib] (partner 0.002 µM), the relative viability was found to be 1.2.
Same read-out and setting: the result for `COCC1(CO)C(=O)C2CCN1CC2` (stereo not given) [PRIMA-1MET] + CC(=O)Nc1cccc(-n2c(=O)n(C3CC3)c(=O)c3c(Nc4ccc(I)cc4F)n(C)c(=O)c(C)c32)c1 [Trametinib] (partner 0.02 µM) reads 0.382.
The same measure, in the same setting: the result for `COCC1(CO)C(=O)C2CCN1CC2` (stereo not given) [PRIMA-1MET] + Nc1ncn([C@H]2C[C@H](O)[C@@H](CO)O2)c(=O)n1 [Decitabine] (partner 2 µM) reads 0.707.
Still for that read-out and setting: the same measure for `COCC1(CO)C(=O)C2CCN1CC2` (stereo not given) [PRIMA-1MET] + O=C(c1cc(Cc2n[nH]c(=O)c3ccccc23)ccc1F)N1CCN(C(=O)C2CC2)CC1 [Olaparib] (partner 8 µM): 0.455; for `COCC1(CO)C(=O)C2CCN1CC2` (stereo not given) [PRIMA-1MET] + C[C@@H](Oc1cc(-c2cnn(C3CCNCC3)c2)cnc1N)c1c(Cl)ccc(F)c1Cl [Crizotinib] (partner 1 µM): 1.09.

The assay is the same for the next values; noted with them: first compound 20 µM.
`COCC1(CO)C(=O)C2CCN1CC2` (stereo not given) [PRIMA-1MET] + CC(C)C[C@H](NC(=O)[C@H](Cc1ccccc1)NC(=O)c1cnccn1)B(O)O [Bortezomib] (partner 0.002 µM) showed a relative viability of 0.617.
Same read-out and setting: the same measure for `COCC1(CO)C(=O)C2CCN1CC2` (stereo not given) [PRIMA-1MET] + CC(=O)Nc1cccc(-n2c(=O)n(C3CC3)c(=O)c3c(Nc4ccc(I)cc4F)n(C)c(=O)c(C)c32)c1 [Trametinib] (partner 0.02 µM): 0.528; for `COCC1(CO)C(=O)C2CCN1CC2` (stereo not given) [PRIMA-1MET] + Nc1ncn([C@H]2C[C@H](O)[C@@H](CO)O2)c(=O)n1 [Decitabine] (partner 2 µM): 0.593; for `COCC1(CO)C(=O)C2CCN1CC2` (stereo not given) [PRIMA-1MET] + O=C(c1cc(Cc2n[nH]c(=O)c3ccccc23)ccc1F)N1CCN(C(=O)C2CC2)CC1 [Olaparib] (partner 8 µM): 0.237.
The same measure, in the same setting: the result for `COCC1(CO)C(=O)C2CCN1CC2` (stereo not given) [PRIMA-1MET] + C[C@@H](Oc1cc(-c2cnn(C3CCNCC3)c2)cnc1N)c1c(Cl)ccc(F)c1Cl [Crizotinib] (partner 1 µM) reads 0.114.

Source of the values: the supplement of paper PMC10307832.
